Assay results: patent publication US8216825B2, “Aquaculture biocide methods and compositions” (priority 2010, dated 2012)
Entries after “also recorded” stand apart in the source; their conditions may differ.

What was measured:
rotifers [1] = details: at concentrations found in this study to be nontoxic to algae; literature findings; cited from earlier work
Chlorella sp. [2] = experiment: Biocide toxicity tests in test tubes, algal optical density at 680 nm (Example 5); assay type: cell-based; details: for mean optical density on day 12 compared with control group: 20 mg/L methoprene, 2% acetone respectively, P>0.05; for mean optical density on day 12 compared with control group / inhibition of algal growth: 2.0 mg/L resmethrin; for inhibition of algal growth: applied without rotifers, experimental concentrations 20 mg/L methoprene, 2% acetone; for mean optical density at day 12 compared with control: printed P>0.5
Method: 27 ml of Chlorella in Alga-Gro Freshwater Medium were added to 300 ml modified Bristol medium and allowed to grow without agitation for 30 hours. The 327 ml of algal solution were then expanded into a total of 700 ml modified Bristol medium and allowed to grow without agitation. After 42 hours, the 700 ml of algal solution were split up into 60 individual test tubes. Each test tube received 10 ml of algal solution, along with 1 ml of rotifer solution (or media) and 4 ml of reagent solution, for a total of 15 ml.
An initial Brachionus sp. population of about 30 individuals was cultured without agitation in one 60-ml jar for 3 days. Then, 1 ml of rotifer solution was pipetted into each of the 40 test tubes designated for rotifer toxicity assessment.
The 60 test tubes represented 12 groups, each with five replicates. The test group names and conditions are as follows (Table 4). The group “20M−R” contained algae, 20 mg/l of methoprene, and no rotifers. The group “20M+R” contained algae, 20 mg/l of methoprene, and rotifers. The group “5M+R” contained algae, 5 mg/l of methoprene, and rotifers. The group “5M+A+R” contained 5 mg/l of methoprene, 2% acetone (v/v), and rotifers. The group “2R−R” contained algae, 2.0 mg/I of resmethrin, and no rotifers. The group “2R+R” contained algae, 2.0 mg/l of resmethrin, and rotifers. The group “5R+R” contained algae, 0.5 mg/l of resmethrin, and rotifers. The group “5R+A+R” contained 0.5 mg/l of resmethrin, 2% acetone, rotifers. The group “A−R” contained algae, 2% acetone and no rotifers. The group “A+R” contained algae, 2% acetone and rotifers. The group “R” contained algae and rotifers without any extra reagents. The group “C” contained algae in media only.
Organisms were cultured and assessed for a test period of 12 days. During the test period, organisms were subjected to agitation at 60 rpm and a photoperiod of 12 hr light, 12 hr dark. The day that organisms were combined into the 60 test tubes was designated as day 0. A 1000-μl sample was removed from each tube for optical density analysis every other day, beginning on day 0. The optical densities of these samples were determined spectrometrically at 680 nm. On days 0, 6, and 12, a 250-μl sample was removed from each of the 1000-μl samples from rotifer-containing groups. Rotifers per 250-μl sample were counted with a dissecting microscope.
The optical densities of each of the 12 groups in the pesticide toxicity tests were averaged and plotted on a time plot (FIGS. 3 & 4). Standard deviation values and average algal growth rates were calculated for each group and day. T-tests were performed to determine the statistical significance of difference between relevant means. A linear regression model was used to compare the optical density averages of the “20M−R” group and the “C” control group. A linear regression of time against optical density in the control group of tubes was compared with a logarithmic regression model of time against optical density in the control flask. (FIG. 5).

Chlorella sp. [3] = experiment: Methoprene with acetone added to Chlorella, growth (Example 2); assay type: cell-based; details: methoprene 20 mg/L with acetone 2% v/v
Method: Methoprene at 20 mg/L with acetone at 2% v/v was added to Chlorella sp.

Brachionus plicatilis = details: Marcial et al. (2005), lower concentration of the project is 30 mg/L; cited from earlier work
Brachionus sp. rotifers [4] = experiment: Live rotifer count by microscopy in 30-μL samples (Example 1); assay type: in vivo; details: 13 days after inoculation
Method: One day prior to the general test period, the rotifer concentration was determined. The rotifer concentration of the bottle was estimated by counting rotifers in three trials of 30-μL samples with a Swift microscope at 1.25× magnification. Rotifer concentration was estimated again with the same procedure on the day of inoculation.
12 days after inoculation a 5-mL sample was extracted from each of the 15 jars containing rotifer solution. 24 hours after extraction, these samples were examined with microscopy. From each of the fifteen 5-mL samples, three 30-μL samples were pipetted onto glass slides and the rotifers were counted with a stereoscopic microscope at 2×-4× magnification.

rotifers [5] = experiment: Rotifer-infested photobioreactor, methoprene with acetone (Example 3); assay type: in vivo; details: methoprene 30 mg/L or less with acetone between 1 and 27 ml/L; present-tense example
Method: Methoprene at a concentration of 30 mg/L or less is added to the algal solution in a rotifer-infested photobioreactor. Acetone at a concentration between 1 and 27 ml/L is also added as an adjuvant. At these concentrations, acetone may (while subjecting the algal crop to minimal harm) act as a surfactant, allowing methoprene to become more dissolved. […] Wait approximately 30 days before renewing the media so that methoprene can biodegrade sufficiently before disposal of water.

Chlorella sp. [6] = experiment: 12-day mason jar test, algal optical density at 680 nm, algae without rotifers (Example 1); assay type: cell-based; details: A+M: 30 mg/L methoprene, no rotifers
Method: (§1) Algae were expanded into 500 ml of 20% artificial seawater in mason jars and subjected to five treatment conditions. Five replicates were conducted for each of the conditions. The test conditions were: control (algae only), rotifers without methoprene (A+R), methoprene without rotifers (A+M) methoprene with rotifers (A+R+M), and double concentration methoprene with rotifers (A+R+2M). In the mason jars containing solutions “with rotifers”, 9 mL of media were replaced with rotifer solution. In the A+M and A+R+M groups, the solution was modified to give a methoprene concentration of 30 mg/L. In the A+R+2M group, the solution was modified to give a methoprene concentration of 62 mg/L.
(§2) During the test period, algae was kept on a 12-hour light: 12-hour dark photoperiod at 26.8° C. The pH and specific gravity of the 20% artificial seawater solution were measured to be 8.92±0.02 and 1.013 respectively.
(§3) Optical density measurements were taken on days 5, 6, and 12 after inoculation. Each jar was first agitated either by gently rocking back and forth until minimal algal residue could be seen on the bottom. Occasionally, a sterile tube or pipette was employed to scrape some residue into the solution. Once minimal algal residue remained in the jar, a 5-mL sample of solution was pipetted out with a sterile pipette. The sample's optical density was read with a spectrometer at 680 nm. Control and A+R sample readings were blanked with a solution of 10 mL modified Bristol medium per 40 mL 20% artificial seawater. A+M and A+R+M sample readings were blanked with a solution of 10 mL modified Bristol medium per 38.5 mL 20% artificial seawater and 1.5 mL methoprene-seawater solution. A+R+2M sample readings were blanked with a solution of 10 mL modified Bristol medium per 36.9 mL 20% artificial seawater and 3.1 mL methoprene-seawater solution. Optical density readings were taken in absorbance units.

Brachionus sp. rotifers [7] = experiment: 12-day mason jar test, algal optical density at 680 nm, algae with rotifers (Example 1); assay type: in vivo
Method: as §1, §2, §3

humans or algae = details: background statement; cited from earlier work
[8] = background statement; cited from earlier work
Daphnia magna = experiment: Alpha-pinene/propylene glycol in algal medium, Daphnia control (Example 4); assay type: in vivo; details: approx. 1:1 (w/w) alpha-pinene and propylene glycol, equal to or less than 136 mg/L; present-tense example
Method: (§4) An approximate 1:1 (w/w) solution of alpha-pinene and propylene glycol is made. Alpha-pinene is the active agent, while propylene glycol is a surfactant. This mixture is added to the algal medium at a concentration equal to or less than 136 mg/L. Daphnia magna and rotofers are controlled in the aquaculture.

rotofers = experiment: Alpha-pinene/propylene glycol in algal medium, rotifer control (Example 4); assay type: in vivo; details: approx. 1:1 (w/w) alpha-pinene and propylene glycol, equal to or less than 136 mg/L; present-tense example
Method: as §4

For CC(C)=CC1C(C(=O)OCc2coc(Cc3ccccc3)c2)C1(C)C (stereo not drawn) [resmethrin], the harm to rotifers (rotifers [1]) is given as “significantly harmful to rotifers”, the “mean optical density on day 12 compared with control group” value (Chlorella sp. [2]) is given as “not significantly different” and the “inhibition of algal growth” value (Chlorella sp. [2]) is given as “Neither methoprene, resmethrin, nor acetone, when applied without rotifers, was found to inhibit algal growth; also recorded: not found to inhibit algal growth”. For the same compound, the “mean optical density at day 12 compared with control” value (Chlorella sp. [2]; group 2R−R as printed: 2.0 mg/L resmethrin, no rotifers) was “significantly lower”.
For COC(C)(C)CCC[C@H](C)C/C=C/C(C)=C/C(=O)OC(C)C (racemic) [methoprene], the “growth reduction of Chlorella sp.” value (Chlorella sp. [3]) is given as “No growth reduction”, the “24-hr LC50” value (Brachionus plicatilis) is given as “lower methoprene concentration utilized in this project” and the “live rotifers in 30-μL samples” value (Brachionus sp. rotifers [4]; A+R+2M: 62 mg/L methoprene) is given as “zero”. For the same compound, the “live rotifers in 30-μL samples” value (Brachionus sp. rotifers [4]; A+R+M: 30 mg/L methoprene, A+R group 8.7 per 30 μL) was “zero”, the effect on rotifers (rotifers [5]) was “eliminates rotifers” and the “Mean optical density ± one standard deviation” value (Chlorella sp. [6]; 5 days after inoculation) was 0.84 ± 0.02. The “Mean optical density ± one standard deviation” value (Chlorella sp. [6]; 6 days) was 0.89 ± 0.01, the “Mean optical density ± one standard deviation” value (Chlorella sp. [6]; 12 days) was 0.93 ± 0.02 and the “average specific growth rate of algae” value (Chlorella sp. [6]; between 5 and 12 days after inoculation) was 0.0065 log(AU)/day. The “Mean optical density ± one standard deviation” value (Brachionus sp. rotifers [7]; A+R+2M: 62 mg/L methoprene with rotifers, 5 days) was 0.6 ± 0.2, the “Mean optical density ± one standard deviation” value (Brachionus sp. rotifers [7]; A+R+2M: 62 mg/L methoprene with rotifers, 6 days) was 0.7 ± 0.1 and the “Mean optical density ± one standard deviation” value (Brachionus sp. rotifers [7]; A+R+2M: 62 mg/L methoprene with rotifers, 12 days) was 0.7 ± 0.2. The “Mean optical density ± one standard deviation” value (Brachionus sp. rotifers [7]; A+R+M: 30 mg/L methoprene with rotifers, 5 days) was 0.6 ± 0.2, the “Mean optical density ± one standard deviation” value (Brachionus sp. rotifers [7]; A+R+M: 30 mg/L methoprene with rotifers, 6 days) was 0.7 ± 0.2 and the “Mean optical density ± one standard deviation” value (Brachionus sp. rotifers [7]; A+R+M: 30 mg/L methoprene with rotifers, 12 days) was 0.7 ± 0.2. The “average specific growth rate of algae” value (Brachionus sp. rotifers [7]; A+R+M: 30 mg/L methoprene with rotifers, between 5 and 12 days after inoculation) was 0.0078 log(AU)/day, the average optical density (Brachionus sp. rotifers [7]; double methoprene concentration with rotifers (A+R+2M, 62 mg/L), 12 days) was 0.71 AU and the average optical density (Brachionus sp. rotifers [7]; methoprene with rotifers (A+R+M, 30 mg/L), 12 days, rotifers only 0.47 AU, control 0.96 AU) was 0.69 AU. The “toxicity to humans or algae” value (humans or algae) was “practically non-toxic”, the harm to rotifers (rotifers [1]) was “significantly harmful to rotifers” and the degradation in sunlight [8] was “rapidly degrades in sunlight”. The “mean optical density on day 12 compared with control group” value (Chlorella sp. [2]) was “not significantly different”, the “inhibition of algal growth” value (Chlorella sp. [2]) was “Neither methoprene, resmethrin, nor acetone, when applied without rotifers, was found to inhibit algal growth” and the “inhibition of algal growth” value (Chlorella sp. [2]; listed as Methoprene) was “not found to inhibit algal growth”. The “mean optical density at day 12 compared with control” value (Chlorella sp. [2]; group 5M+R: 5 mg/L methoprene, rotifers) was “significantly lower”.
In the case of CC(C)=O [acetone], the “mean optical density on day 12 compared with control group” value (Chlorella sp. [2]) is reported as “not significantly different” and the “inhibition of algal growth” value (Chlorella sp. [2]) is reported as “Neither methoprene, resmethrin, nor acetone, when applied without rotifers, was found to inhibit algal growth; also recorded: not found to inhibit algal growth”.
With CC1=CCC2CC1C2(C)C (stereo not drawn) [alpha-pinene] the “control of Daphnia magna in the aquaculture” value (Daphnia magna) was “controlled” and the “control of rotifers in the aquaculture” value (rotofers) was “controlled”.
